Test results taken from patent publication US8138304B2, “Neural regeneration peptides and formulations thereof” (Neuren Pharmaceuticals Limited, priority 2005, dated 2012).
Where no end group is shown, it is not given here.

What was measured:
[1] = test system: embryonic mouse neural stem cells (NSCs); experiment: Haptotactic migration assay in injury conditions (activated astroglial monolayer); assay type: cell-based; conditions: 100 fM in lower compartment; TGFβ1 and scratch-activated astrocyte monolayer; 24 hrs
Experimental: The NRP of SEQ ID NO: 1 was tested for migration-inducing/chemoattractive activity on mouse neural stem cells in a haptotactic migration assay in injury conditions, as described below.
P1 (postnatal day 1) Wistar or Sprague Dawley rats were sacrificed by decapitation. Cortical hemispheres were removed and collected into separate tubes containing 4 ml DMEM—1 cortex per tube. The tissue was mechanically triturated. Cells were transferred into medium using a sterile pipette and filtered through a 100 um cell strainer into a 50 ml centrifuge tube. Each tube was stocked up to 50 ml with DMEM. The tubes were centrifuged for 5 mins at 350×g at 22° C. The cells were resuspended in 40 ml of DMEM+10% FBS. The cells were then seeded into a 12-well plate+5 nM ocadaic acid (to remove neurons by inducing apoptotic cell death) and incubated at 37° C./10% CO2 for 24 hrs […]. The medium+FBS was replaced after 1 day with fresh DMEM+10% FBS. The cell growth was monitored until confluency (14-18 days).
Induction of injuries to the astrocytic monolayer was accomplished using the pharmacological agent transforming growth factor β1 (TGFβ1) and simultaneous mechanical scratching of the monolayer in order to activate astrocytics. […]
Migrated stem cell number of labelled cells were analysed after 24 hrs by a fluorescence-based computerized imaging system (Discovery-1).

[2] = test system: JAr cells; experiment: TNF-alpha-induced cytotoxicity in immortalized trophoblast cell line; assay type: cell-based, human
Experimental: Choriocarcinoma cells (Jeg-3, BeWo and Jar; ATCC) were cultured under similar conditions in DMEM/F-12 cell culture medium in 75 cm2 flasks with filter tops (Raylab). Cells were allowed to adhere and grow in an incubator equilibrated in 95%/5% air/CO2 to approximately 70% confluence, before being split every 2 to 3 days by addition of 2 ml of 1× concentrated trypsin-EDTA. After a centrifugation step for 5 min at 1100 rpm, cells were resuspended in 15 ml of fresh DMEM/F-12 in sterile tissue flasks and placed back in the incubator.
In this study, we plated 50,000 JAr cells per well. JAr cells are an immortalized line of cells derived from a human choriocarcinoma cells. Wells were pre-incubated with NRP-5RG D6A (SEQ ID NO: 1) at the concentrations indicated in FIG. 12, or epidermal growth factor (EGF; 5 ng/ml) for 2 hours. Subsequently, cells were exposed to the cultures for 48 hours to TNF-alpha (5 ng/ml) and interferon-gamma (5 ng/ml) to induce stress.

REGRRAAPGRAGG-NH2 (listed as Homo sapiens) [SEQ ID NO: 1, 13-mer NRP analogue]
more stem cells migrated than vehicle-treated controls [1]: 69.1% | rescue effect at further increased concentration ([2]; 1 nM): reduced rescue effect | concentration at which a significant rescue effect was observed ([2]; 2 hours pre-incubation, TNF-alpha 5 ng/ml and interferon-gamma 5 ng/ml, 48 hours): 10 fM
